The test system of test [1] is Gastric MRI-H254. Description: sc xenograft, gastric tumour, mouse. As to conditions: for Activity (% T/C.): xenograft, mouse. The format is in vivo. Here is the method: (§1) Different model systems were evaluated to provide the basis for further clinical work. Selective antitumour activities were seen against two histologically different solid tumours: human gastric and prostate carcinomas. Potent in vitro activity to primary gastric tumour specimens or Hs746T gastric tumour cells is evident with IC30 values of 146 and 450 pM, respectively. […] activities were evaluated in nude rodents using sc implanted tumour fragments or hollow fibres (HF) containing tumour cells.
(§2) Follow-up studies necessitated using rats for iv infusions. With this variation, a 24 hr iv infusion schedule produced similar activities against HF gastric (20%) and HF prostate (31%) tumour cells. Cytotoxicity was also found using a 5 day iv infusion schedule against HF prostate tumour cells (33%).

Test [2] has as its system Prostate PC-3. In words: sc xenograft, prostate tumour, mouse. The format is in vivo. Particulars: for Activity (% T/C.): xenograft, mouse. Here is the method: as §1, §2
Test [3] has as its system solid tumours and Non-Hodgkin's Lymphomas. Description: Phase I, 1 h daily infusion x5 q3wk: antitumour activity. The format is in vivo, human. Here is the method: The objectives are to determine the Maximum Tolerated Dose, the Dose Limiting Toxicity (DLT), the pharmacokinetics (PK) and the recommended dose for phase 2 studies that can be given in a daily 1 hour IV infusion×5 days q 3 weeks. Patients with solid tumours and low and intermediate grade Non-Hodgkin's Lymphomas were eligible. The daily starting dose of aplidine was 80 μg/m^2. Cohorts of 3 patients (pts) are treated at each level with dose escalation according to toxicity, 20 patients were treated with 6 dose levels ranging from 80 μg-720 μg/m^2, 1 patient is presently at the dose of 960 μg/m^2. At total of 48 cycles were administered. Non-haematological toxicities were grade 1 and 2 with fatigue reported in most pts. Grade 1 hypersensitivity reactions were documented in 7 patients. Other toxicities included nausea, anorexia, diarrhoea, and anxiety. […] PK analysis was performed in treatment course 1. Aplidine concentrations were analysed by LC tandem mass spectrography. […] Potentially therapeutic plasma concentrations ([…]) were achieved. […] Accrual is ongoing at 960 μg/m^2.

Test [4] concerns gastric tumours. As to conditions: 1.25 mg/kg; cited from earlier work.
In test [5] the test system is prostate tumour. Particulars: 1.25 mg/kg; cited from earlier work.
The test system of test [6] is PC-3 prostate tumour cells. In words: in vitro activity on prostate tumour cells. In kind it is cell-based, human. How it is done: as §1
Test [7] concerns VEGF. In words: VEGF secretion from MOLT-4 cells (ELISA). The format is cell-based, human. How it is done: Cells were treated for 1 h with 20 nM aplidine. VEGF secreted in the medium was measured by ELISA at the end of treatment and after 6 and 24 hours incubation in drug-free medium.
Test [8] has as its system lewis lung carcinomas. Particulars: cited from earlier work.
The mark [9] stands for this setting: ip administration, range over regimens.

We go through one substance from patent US20090298752A1, “APLIDINE TREATMENT OF CANCERS” (PHARMA MAR, S.A., priority 1999, published 2009).

“Also recorded” adds a separate entry of the source.

In the case of aplidine, the “Optimal activities, xenografted gastric tumours” value in test [1] (setting [9]) was 17-20%. For the same substance, the “Activity (% T/C.)” value in test [1] (q4dx3.ip, 1.25 mg/kg) worked out at 18% T/C; in test [1] (qd9.ip, 1.05 mg/kg), 17% T/C; in test [1] (qd9.ip, 2.1 mg/kg), 19% T/C; in test [2] (q4dx3.ip, 1.05 mg/kg), 38% T/C; in test [2] (q4dx3.ip, 2.10 mg/kg) it was 34% T/C; in test [2] (qd9.ip, 0.62 mg/kg), 30% T/C. In test [2] (qd9.ip, 1.25 mg/kg), the “Activity (% T/C.)” value is 25% T/C. For the same substance, the “Optimal activities, xenografted prostate tumours” value in test [2] (setting [9]) is 25-38%. Moreover, in test [3] (1 patient), the “duration of stable disease, colon cancer” value was 9 months. Further, the “response, renal cell cancer” value in test [3] (1 patient) was “mixed response”. In addition, the objective responses result in test [3] (in vivo) is recorded as “No objective responses”. In test [3] (one patient), the “reduction in the size of the tumor, heavily pre-treated CRC” value was determined as 40%. Also, in test [3] (one patient, mixed responses), the “reduction in sum of tumour measurements, renal cell cancer and liver mets” value was 10%. The “duration of stable disease, heavily pre-treated CRC” value in test [3] (one patient, total 13 cycles) is not below 6 months. Further, the figures for the T/C in test [4] and in test [5] were 14% and 25%, respectively. Besides, the IC50 in test [6] worked out at 3.4 nM. For the same substance, the “intracellular VEGF” value in test [7] is recorded as “increased intracellular accumulation of VEGF”. Besides, in test [7] (1 h with 20 nM aplidine), the “VEGF secretion, in words” value is listed as “strong reduction of VEGF secretion; also recorded: severely inhibit production; also recorded: Blocks VEGF Secretion”. The “concentration at which block of VEGF secretion is already observable” value in test [7] (concentration-dependent) amounted to 5 nm. In addition, the “activity in SC implanted tumour” value in test [8] is listed as “active”.
